Laboratory results reported in patent US10040759B2, “Substituted azetidinyl compounds as GlyT1 inhibitors” (DART NEUROSCIENCE (CAYMAN) LTD., priority 2014, dated 2018).

target: T1, GlyT1 (Homo sapiens, UniProt P48067); assay: Glycine Transporter 1 (GlyT1) uptake assay, scintillation proximity assay of [14C]-glycine uptake; type: cell-based; details: [14C]-glycine uptake; read-out: GlyT1 (pIC50) (converted)
T1 construct: expressed in transfected cells
T1 sequence (P48067 1-706): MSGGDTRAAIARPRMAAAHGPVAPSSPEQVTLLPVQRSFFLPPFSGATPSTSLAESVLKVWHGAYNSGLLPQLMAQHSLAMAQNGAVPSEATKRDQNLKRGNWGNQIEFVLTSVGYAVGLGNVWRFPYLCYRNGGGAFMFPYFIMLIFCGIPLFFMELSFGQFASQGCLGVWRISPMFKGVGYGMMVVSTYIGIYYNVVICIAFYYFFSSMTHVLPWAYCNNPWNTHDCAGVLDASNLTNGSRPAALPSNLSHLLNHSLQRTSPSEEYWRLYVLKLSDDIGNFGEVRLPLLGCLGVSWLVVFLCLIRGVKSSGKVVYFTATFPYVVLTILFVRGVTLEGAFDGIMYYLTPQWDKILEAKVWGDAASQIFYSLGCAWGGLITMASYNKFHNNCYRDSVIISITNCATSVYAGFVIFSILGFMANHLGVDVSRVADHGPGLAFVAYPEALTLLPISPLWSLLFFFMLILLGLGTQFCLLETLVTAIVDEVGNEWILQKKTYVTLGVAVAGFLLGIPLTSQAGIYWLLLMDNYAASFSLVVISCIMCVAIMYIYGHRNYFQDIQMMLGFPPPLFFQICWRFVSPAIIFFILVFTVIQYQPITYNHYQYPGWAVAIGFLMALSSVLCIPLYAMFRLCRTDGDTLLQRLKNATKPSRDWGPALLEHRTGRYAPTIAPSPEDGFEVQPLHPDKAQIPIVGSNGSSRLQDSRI
Procedure, shortened: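 IC50 values were derived by four-parameter logistic fitting of counts. The 2× compound solutions were made by 1:100 dilution into HBSS of DMSO serial dilutions.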

Row | SMILES | IC50 [nM]
1 | C[C@H](Oc1ccc(C#N)c(Cl)c1C(=O)N1CC(c2ccc(C#N)cc2)C1)C(F)(F)F [Example 109, 2-Chloro-3-{[3-(4-cyanophenyl)azetidin-1-yl]carbonyl}-4-{[(2S)-1,1,1-trifluoropropan-2-yl]oxy}benzonitrile] | 100 to 1000
2 | Cc1cncc(C2CN(C(=O)c3c(OC(C)C(F)(F)F)ccc(C#N)c3Cl)C2)c1 (stereo not shown) [Example 110, 2-Chloro-3-{[3-(5-methylpyridin-3-yl)azetidin-1-yl]carbonyl}-4-[(1,1,1-trifluoropropan-2-yl)oxy]benzonitrile] | 100 to 1000
3 | COc1c(C#N)ccc(OC(C)C(F)(F)F)c1C(=O)N1CC(c2cncc(C)c2)C1 (stereo not shown) [Example 111, 2-Methoxy-3-{[3-(5-methylpyridin-3-yl)azetidin-1-yl]carbonyl}-4-[(1,1,1-trifluoropropan-2-yl)oxy]benzonitrile] | 100 to 1000
4 | CC(Oc1ccc(C#N)c(Cl)c1C(=O)N1CC(c2ccc(C(F)(F)F)nc2)C1)C(F)(F)F (stereo not shown) [Example 112, 2-Chloro-3-({3-[6-(trifluoromethyl)pyridin-3-yl]azetidin-1-yl}carbonyl)-4-[(1,1,1-trifluoropropan-2-yl)oxy]benzonitrile] | < 100
5 | COc1c(C#N)ccc(OC(C)C(F)(F)F)c1C(=O)N1CC(c2ccc(C(F)(F)F)nc2)C1 (stereo not shown) [Example 113, 2-Methoxy-3-({3-[6-(trifluoromethyl)pyridin-3-yl]azetidin-1-yl}carbonyl)-4-[(1,1,1-trifluoropropan-2-yl)oxy]benzonitrile] | < 100
6 | COc1c(C#N)ccc(O[C@@H](C)C(F)(F)F)c1C(=O)N1CC(c2ncc(C(F)(F)F)cc2Cl)C1 [Example 114, 3-({3-[3-Chloro-5-(trifluoromethyl)pyridin-2-yl]azetidin-1-yl}carbonyl)-2-methoxy-4-{[(2S)-1,1,1-trifluoropropan-2-yl]oxy}benzonitrile] | 100 to 1000
7 | COc1c(C#N)ccc(O[C@@H](C)C(F)(F)F)c1C(=O)N1CC(c2ccc(C(F)F)cn2)C1 [Example 115, 3-({3-[5-(Difluoromethyl)pyridin-2-yl]azetidin-1-yl}carbonyl)-2-methoxy-4-{[(2S)-1,1,1-trifluoropropan-2-yl]oxy}benzonitrile] | 100 to 1000
8 | COc1c(C#N)ccc(O[C@@H](C)C(F)(F)F)c1C(=O)N1CC(c2ccc(C#N)c(F)c2)C1 [Example 116, 3-{[3-(4-Cyano-3-fluorophenyl)azetidin-1-yl]carbonyl}-2-methoxy-4-{[(2S)-1,1,1-trifluoropropan-2-yl]oxy}benzonitrile] | < 100
9 | COc1c(C#N)ccc(C2(F)CCOCC2)c1C(=O)N1CC(c2ncc(C(F)(F)F)cc2Cl)C1 [Example 117, 3-({3-[3-Chloro-5-(trifluoromethyl)pyridin-2-yl]azetidin-1-yl}carbonyl)-4-(4-fluorooxan-4-yl)-2-methoxybenzonitrile] | < 100
10 | COc1c(C#N)ccc(O[C@@H](C)C(F)(F)F)c1C(=O)N1CC(c2ccc(C#N)cc2Cl)C1 [Example 118, 3-{[3-(2-Chloro-4-cyanophenyl)azetidin-1-yl]carbonyl}-2-methoxy-4-{[(2S)-1,1,1-trifluoropropan-2-yl]oxy}benzonitrile] | < 100
11 | COc1c(C#N)ccc(OCC(F)(F)F)c1C(=O)N1CC(c2ncc(C(F)(F)F)cc2Cl)C1 [Example 119, 3-({3-[3-Chloro-5-(trifluoromethyl)pyridin-2-yl]azetidin-1-yl}carbonyl)-2-methoxy-4-(2,2,2-trifluoroethoxy)benzonitrile] | < 100
12 | C[C@H](Oc1ccc(C#N)c(Cl)c1C(=O)N1CC(c2ccc(C(F)(F)F)cn2)C1)C(F)(F)F [Example 120, 2-Chloro-3-({3-[5-(trifluoromethyl)pyridin-2-yl]azetidin-1-yl}carbonyl)-4-{[(2S)-1,1,1-trifluoropropan-2-yl]oxy}benzonitrile] | < 100
13 | COc1c(C#N)ccc(O[C@@H](C)C(F)(F)F)c1C(=O)N1CC(c2ncc(F)cc2F)C1 [Example 121, 3-{[3-(3,5-Difluoropyridin-2-yl)azetidin-1-yl]carbonyl}-2-methoxy-4-{[(2S)-1,1,1-trifluoropropan-2-yl]oxy}benzonitrile] | < 100
